≈ marks a conversion by molar mass, not a printed value.
Experiments:
Test in all cases: In-vitro antibacterial activity, broth microdilution MIC
Type in all cases: cell-based
[1] = tested on: Enterococcus faecalis ATCC 29212 Vancomycin Sensitive; conditions: ATCC29212, Table 7, E. faecalis vancomycin sensitive, broth microdilution, 35±2° C., 16-20 h, read-out: MIC ATCC 29212
Experimental: (§1) The in-vitro antibacterial activity of the compounds of the present invention (as described in Table 7) was determined by a broth microdilution following the guidelines prescribed by the Clinical and Laboratory Standards Institute (CLSI). This method is described in the CLSI Document M7-A7, Vol. 26, No. 2, “Methods for Dilution Antimicrobial Susceptibility Test for Bacteria that Grow Aerobically; Approved Standard-Seventh Edition”, which is incorporated herein by reference. Minimum Inhibitory Concentration (MIC) is defined as the minimum concentration of test compound which inhibits the growth of bacteria as visible or seen by the naked eye. This test can also be carried out by agar dilution method.
(§2) The compounds of the present invention were tested against a panel of standard microorganisms obtained from ATCC (American type culture collection). Linezolid was used as comparator in all the tests.
(§3) In the broth microdilution method, the compound was dissolved in dimethylsulfoxide and two fold serial dilutions were carried out in 96 well microtitre plates. The inoculum was prepared by adjusting the turbidity of actively growing broth culture and added to the wells to obtain a final bacterial count of ˜2-5×10^4 CFU/well. The microtitre plates were incubated at 35±2° C. for 16-20 h and then read visually.

[2] = tested on: Enterococcus faecium ATCC 700221 VRE (Vancomycin resistant E. faecium); conditions: Table 7, broth microdilution, 35±2° C., 16-20 h, read-out: MIC ATTC 700221
Experimental: as §1, §2, §3

[3] = tested on: Staphylococcus aureus ATCC 29213 MSSA (Methicillin sensitive); conditions: Table 7, S. aureus MSSA, broth microdilution, 35±2° C., 16-20 h, read-out: MIC ATCC 29213
Experimental: as §1, §2, §3

[4] = tested on: Staphylococcus aureus ATCC 33591 MRSA (Methicillin resistant); conditions: Table 7, S. aureus MRSA, broth microdilution, 35±2° C., 16-20 h, read-out: MIC ATCC 33591
Experimental: as §1, §2, §3

MIC [1] [µg/mL]	MIC [2] [µg/mL]	MIC [3] [µg/mL]	MIC [4] [µg/mL]	SMILES
1 (≈ 2.57 µM)	1 (≈ 2.57 µM)	1 (≈ 2.57 µM)	1 (≈ 2.57 µM)	COC(=O)NC[C@H]1CN(c2ccc(C34CC3CN(C(=O)OC)C4)cc2)C(=O)O1 (stereo partly shown)
0.5 (≈ 1.29 µM)	0.25 (≈ 0.647 µM)	4 (≈ 10.4 µM)	1 (≈ 2.59 µM)	CC(=O)NC[C@H]1CN(c2ccc(C34CC3CN(C(=O)N(C)C)C4)cc2)C(=O)O1 (stereo partly shown)
0.5 (≈ 1.12 µM)	0.5 (≈ 1.12 µM)	2 (≈ 4.49 µM)	1 (≈ 2.24 µM)	CCOC(=O)OCC(=O)N1CC2CC2(c2ccc(N3C[C@H](CNC(C)=O)OC3=O)cc2)C1 (stereo partly shown)
0.5 (≈ 1.27 µM)	1 (≈ 2.55 µM)	1 (≈ 2.55 µM)	0.5 (≈ 1.27 µM)	CC(=O)NC[C@H]1CN(c2ccc(C34CC3CN(c3ccccn3)C4)cc2)C(=O)O1 (stereo partly shown)
0.5 (≈ 1.28 µM)	0.5 (≈ 1.28 µM)	1 (≈ 2.55 µM)	0.5 (≈ 1.28 µM)	COC(=O)N1CC2CC2(c2ccc(N3C[C@H](CNC(C)=O)OC3=O)cc2F)C1 (stereo partly shown)
2 (≈ 5.22 µM)	1 (≈ 2.61 µM)	1 (≈ 2.61 µM)	0.5 (≈ 1.3 µM)	COC(=O)N1CC2CC2(c2ccc(N3C[C@H](Cn4ccnn4)OC3=O)cc2)C1 (stereo partly shown)
2 (≈ 4.86 µM)	1 (≈ 2.43 µM)	2 (≈ 4.86 µM)	2 (≈ 4.86 µM)	CC(=O)NC[C@H]1CN(c2ccc(C34CC3CN(C(=O)C(F)(F)F)C4)cc2)C(=O)O1 (stereo partly shown)
2 (≈ 4.83 µM)	4 (≈ 9.65 µM)	4 (≈ 9.65 µM)	4 (≈ 9.65 µM)	CC(=O)NCC(=O)N1CC2CC2(c2ccc(N3C[C@H](CNC(C)=O)OC3=O)cc2)C1 (stereo partly shown)
1 (≈ 2.68 µM)	0.5 (≈ 1.34 µM)	1 (≈ 2.68 µM)	0.5 (≈ 1.34 µM)	COC(=O)N1C[C@@H]2C[C@]2(c2ccc(N3C[C@H](CNC(C)=O)OC3=O)cc2)C1
0.125 (≈ 0.314 µM)	0.5 (≈ 1.25 µM)	0.5 (≈ 1.25 µM)	0.25 (≈ 0.627 µM)	CC(=O)NC[C@H]1CN(c2ccc(C34CC3CN(c3nccs3)C4)cc2)C(=O)O1 (stereo partly shown)

Continued, compound first:

SMILES	MIC [1] [µg/mL]	MIC [2] [µg/mL]	MIC [3] [µg/mL]	MIC [4] [µg/mL]
COC(=O)NC[C@H]1CN(c2ccc(C34CC3CN(C(C)=O)C4)cc2)C(=O)O1 (stereo partly shown)	2 (≈ 5.36 µM)	1 (≈ 2.68 µM)	2 (≈ 5.36 µM)	1 (≈ 2.68 µM)
CC(=O)NC[C@H]1CN(c2ccc(C34CC3CN(C(=O)c3cccnc3)C4)cc2)C(=O)O1 (stereo partly shown)	2 (≈ 4.76 µM)	2 (≈ 4.76 µM)	2 (≈ 4.76 µM)	1 (≈ 2.38 µM)
CC(=O)NC[C@H]1CN(c2ccc(C34CC3CN(C(=O)c3cn5cccnc5n3)C4)cc2)C(=O)O1 (stereo partly shown)	1 (≈ 2.17 µM)	1 (≈ 2.17 µM)	2 (≈ 4.34 µM)	2 (≈ 4.34 µM)
CC(=O)NC[C@H]1CN(c2ccc(C34CC3CN(S(C)(=O)=O)C4)cc2)C(=O)O1 (stereo partly shown)	2 (≈ 5.08 µM)	1 (≈ 2.54 µM)	2 (≈ 5.08 µM)	1 (≈ 2.54 µM)
CC(=O)NC[C@H]1CN(c2ccc(C34CC3CN(C(=O)OC(C)C)C4)cc2)C(=O)O1 (stereo partly shown)	2 (≈ 4.98 µM)	1 (≈ 2.49 µM)	2 (≈ 4.98 µM)	1 (≈ 2.49 µM)
CC(=O)NC[C@H]1CN(c2ccc(C34CC3CN(C(=O)CCc3ccccc3)C4)cc2)C(=O)O1 (stereo partly shown)	1 (≈ 2.23 µM)	0.5 (≈ 1.12 µM)	1 (≈ 2.23 µM)	1 (≈ 2.23 µM)
CC(=O)NC[C@H]1CN(c2ccc(C34CC3CN(C(=O)CO)C4)cc2)C(=O)O1 (stereo partly shown)	0.5 (≈ 1.34 µM)	0.5 (≈ 1.34 µM)	0.5 (≈ 1.34 µM)	0.5 (≈ 1.34 µM)
CC(=O)NC[C@H]1CN(c2ccc(C34CC3CN(C#N)C4)cc2)C(=O)O1 (stereo partly shown)	1 (≈ 2.94 µM)	0.5 (≈ 1.47 µM)	0.5 (≈ 1.47 µM)	0.5 (≈ 1.47 µM)
COC(=O)N1CC2CC2(c2ccc(N3C[C@H](CNC(C)=O)OC3=O)cc2)C1 (stereo partly shown)	2 (≈ 5.36 µM)	1 (≈ 2.68 µM)	2 (≈ 5.36 µM)	1 (≈ 2.68 µM)
CC(=O)N1CC2CC2(c2ccc(N3C[C@H](Cn4ccnn4)OC3=O)cc2)C1 (stereo partly shown)	2 (≈ 5.44 µM)	1 (≈ 2.72 µM)	1 (≈ 2.72 µM)	2 (≈ 5.44 µM)
CC(=O)NC[C@H]1CN(c2ccc(C34CC3CN(Cc3cccnc3)C4)cc2)C(=O)O1 (stereo partly shown)	8 (≈ 19.7 µM)	2 (≈ 4.92 µM)	4 (≈ 9.84 µM)	4 (≈ 9.84 µM)
CC(=O)NC[C@H]1CN(c2ccc(C34CC3CN(C(=O)C(=O)c3ccco3)C4)cc2)C(=O)O1 (stereo partly shown)	1 (≈ 2.29 µM)	0.5 (≈ 1.14 µM)	1 (≈ 2.29 µM)	1 (≈ 2.29 µM)
COC(=O)N1C[C@H]2C[C@@]2(c2ccc(N3C[C@H](CNC(C)=O)OC3=O)cc2)C1	1 (≈ 2.68 µM)	1 (≈ 2.68 µM)	2 (≈ 5.36 µM)	1 (≈ 2.68 µM)
CC(=O)NC[C@H]1CN(c2ccc(C34CC3CN(C(C)=O)C4)c(F)c2)C(=O)O1 (stereo partly shown)	1 (≈ 2.66 µM)	0.5 (≈ 1.33 µM)	1 (≈ 2.66 µM)	0.5 (≈ 1.33 µM)
CC(=O)NC[C@H]1CN(c2ccc(C34CC3CN(c3ccc(F)nc3)C4)cc2)C(=O)O1 (stereo partly shown)	1 (≈ 2.44 µM)	0.5 (≈ 1.22 µM)	1 (≈ 2.44 µM)	0.5 (≈ 1.22 µM)
